In the case of `FC(F)C(F)(F)Cl`, the boiling point is reported as -10 °C and the melting point is reported as -117 °C.
With `CNC(=O)Oc1ccc(SC)c(C)c1` the melting point was 118 °C.
Work on `C=CCOC(Cn1ccnc1)c1ccc(Cl)cc1Cl` (stereo not drawn) yielded a boiling point of 347 °C, a log10 Koc (L/kg) of 3.73 and a log10 vapour pressure (mmHg) of -5.92. The melting point was 52.7 °C.
In the case of `c1ccc2sc(SNC3CCCCC3)nc2c1`, the melting point is reported as 98 °C and the ready biodegradability is reported as “not readily biodegradable”.
For `COC(=O)OC`, the boiling point was 90.5 °C, the log10 vapour pressure (mmHg) was 1.74 and the melting point was 3 °C.
Compound `CC(Br)Br` has a boiling point of 108 °C, a log10 vapour pressure (mmHg) of 1.41 and a melting point of -63 °C.
Work on `O=C1CCCCCO1` yielded a boiling point of 215 °C, a log10 vapour pressure (mmHg) of -0.87 and a melting point of -18 °C. For the same compound, the ready biodegradability was “readily biodegradable”.
With `Nc1ccc(S(N)(=O)=O)cc1` the ready biodegradability was “not readily biodegradable”.
Work on `C/C(=C(\CCOC(=O)c1ccccc1)SS/C(CCOC(=O)c1ccccc1)=C(/C)N(C=O)Cc1cnc(C)nc1N)N(C=O)Cc1cnc(C)nc1N` yielded a melting point of 146 °C.
Compound `O=C(O)C1CCCCCC1` has a boiling point of 259 °C.
In the case of `CCC1(C)CC(=O)NC(=O)C1`, the melting point is reported as 126 °C.
With `CC1CCC(C)C1=O` (stereo not drawn) the boiling point was 146 °C.
Work on `Cc1ccc(N)nc1` yielded a boiling point of 227 °C and a melting point of 76.5 °C.
In the case of `CCOc1ccc(C(=O)OCCN(CC)CC)cc1`, the melting point is reported as 173 °C.
Work on `CSCCC=O` yielded a boiling point of 166 °C.
`COC=O` showed a boiling point of 31.7 °C, a log10 Henry constant (atm·m³/mol) of -3.65 and a log10 Koa of 1.75. It also gave a log10 vapour pressure (mmHg) of 2.77 and a melting point of -99 °C.
With `FC(F)(F)N1C(F)(F)C(F)(F)OC(F)(F)C1(F)F` the boiling point was 51 °C and the melting point was -80 °C.
In the case of `CCCC(=O)OCC(C)C`, the boiling point is reported as 157 °C.
With `C=CC(=O)OC` the boiling point was 80.2 °C, the log10 vapour pressure (mmHg) was 1.94 and the melting point was -76.5 °C. For the same compound, the ready biodegradability was “readily biodegradable”.
`CCC(C)(C)OC` gave a boiling point of 86.3 °C, a log10 Henry constant (atm·m³/mol) of -2.88 and a log10 vapour pressure (mmHg) of 1.88.
In the case of `CCOC(=O)COc1cccc2ccccc12`, the melting point is reported as 56.5 °C.
`CCC(N)=O` showed a boiling point of 213 °C, a log10 vapour pressure (mmHg) of -1.42 and a melting point of 81.3 °C.
Compound `CC(=O)C(C)C` has a boiling point of 94.3 °C, a log10 Koa of 3.04 and a log10 vapour pressure (mmHg) of 1.72. For the same compound, the melting point was -92 °C and the ready biodegradability was “readily biodegradable”.
In the case of `CCCCCCCC1CCCCC1`, the boiling point is reported as 244 °C, the log10 vapour pressure (mmHg) is reported as -1.4 and the melting point is reported as -30 °C.
`Clc1cc2oc3c(Cl)c(Cl)c(Cl)c(Cl)c3c2cc1Cl` gave a log10 Koa of 10.8.
`Cc1cc(C)c2cc(C)ccc2c1` gave a melting point of 12 °C.
For `CC(C)N(C(=O)COc1nnc(C(F)(F)F)s1)c1ccc(F)cc1`, the log10 vapour pressure (mmHg) was -6.17 and the melting point was 76 °C.
Work on `CCOC(=O)C(C(=O)OCC)C(=O)OCC` yielded a boiling point of 253 °C and a melting point of 29 °C.
With `Cc1ccc2nc(-c3ccc(N)cc3)sc2c1` the boiling point was 434 °C and the melting point was 195 °C.
For `O=[N+]([O-])c1ccccc1CCl`, the melting point was 51 °C.
For `CCOc1ccc([N+](=O)[O-])cc1`, the boiling point was 283 °C and the melting point was 60 °C.
Compound `Brc1ccc2c(c1)Oc1cc(Br)ccc1O2` has a log10 vapour pressure (mmHg) of -5.89 and a melting point of 145 °C.
`CCOC(=O)Cc1ccccc1` gave a boiling point of 227 °C, a log10 Koc (L/kg) of 1.89 and a melting point of -29.4 °C.
For `CC(C)(Cl)C=O`, the boiling point was 90 °C.
`Oc1c(F)c(F)c(C(F)(F)F)c(F)c1F` gave a boiling point of 164 °C.
`O=C(O)c1cc(F)cc(F)c1` gave a melting point of 122 °C.
Work on `O=c1oc2ccccc2c(O)c1Cc1c(O)c2ccccc2oc1=O` yielded a melting point of 290 °C.
`ClCCCOc1ccccc1` gave a boiling point of 250 °C and a melting point of 12 °C.
In the case of `C=C(C)CCl`, the boiling point is reported as 71.5 °C, the log10 vapour pressure (mmHg) is reported as 2.01 and the ready biodegradability is reported as “readily biodegradable”.
In the case of `NNS(=O)(=O)c1ccc(Oc2ccc(S(=O)(=O)NN)cc2)cc1`, the ready biodegradability is reported as “not readily biodegradable”.
In the case of `O=C1c2ccc(O)cc2C(=O)c2cc(O)ccc21`, the melting point is reported as 354 °C.
With `CCCCC(CC)CO[Si](OCC(CC)CCCC)(OCC(CC)CCCC)OCC(CC)CCCC` (stereo not drawn) the boiling point was 419 °C.
In the case of `CC(C)(Cl)CCCl`, the boiling point is reported as 147 °C.
In the case of `CCOC(=O)Nc1cccc(OC(=O)Nc2ccccc2)c1`, the log10 Koc (L/kg) is reported as 3.18, the log10 vapour pressure (mmHg) is reported as -8.52 and the melting point is reported as 120 °C.
With `O=C(O)[C@H]1CCCC[C@H]1C(=O)OC(=O)[C@H]1CCCC[C@H]1C(=O)O` the ready biodegradability was “not readily biodegradable”.
Compound `C1CCNCC1` has a boiling point of 106 °C, a log10 Henry constant (atm·m³/mol) of -5.35 and a log10 Koa of 4.04. For the same compound, the log10 vapour pressure (mmHg) was 1.51, the melting point was -7 °C and the ready biodegradability was “readily biodegradable”.
Work on `NC[C@H]1O[C@H](O[C@H]2[C@H](O[C@@H]3O[C@H](CO)[C@@H](O)[C@H]3O)C(O)[C@H](N)C[C@@H]2N)[C@H](N)[C@@H](O)[C@@H]1O` (stereo partly drawn) yielded a melting point of 194 °C.
`Cc1ccc(CC(=O)O)cc1` gave a boiling point of 265 °C and a melting point of 93 °C.
For `Cc1cc(Cl)cc2c1SC(=C1Sc3c(C)cc(Cl)cc3C1=O)C2=O`, the log10 vapour pressure (mmHg) was -9.52.
Compound `CCOC(C)(C)CC` has a boiling point of 102 °C and a log10 vapour pressure (mmHg) of 1.7.
Work on `Cc1cc(C)on1` yielded a boiling point of 143 °C.
For `CC[C@@H]1C(=O)OC[C@@H]1Cc1cncn1C`, the melting point was 34 °C.
In the case of `O=C(O)c1cc(I)ccc1O`, the melting point is reported as 190 °C.
`Cl.NCCc1ccccc1` showed a melting point of 218 °C.
Compound `O=P(O)(O)CN(CP(=O)(O)O)CP(=O)(O)O` has a boiling point of 480 °C and a log10 vapour pressure (mmHg) of -11.2.
`CCC(C)(C)Br` gave a boiling point of 108 °C.
With `COc1ccc2c(c1OC)C(=O)OC2` the melting point was 102 °C.
